US5200506A, “Process for preparing new thymopentin retro-inverso analogs and fragments thereof and the intermediates obtained therein” (Eniricerche S.p.A., priority 1987, dated 1993)
Where a SMILES comes first, the peptide text is derived from it.

Assays:
[1] = test system: immune response; conditions: thymectomized mice, preliminary in vivo tests; L.Kisfaludy et al. 1983; cited from earlier work
[2] = test system: spleen cells of mice incubated with SRBC; assay: Plaque forming cells test; format: in vivo
Experimental: As the in vivo test, the so-called "plaque forming cells" test described by N. Jerne (same reference as above), has been used. The test is carried out incubating spleen cells of mice who had received the test peptides, with SRBC and counting the number of plaques formed. In the actual practice, groups of 3 mice each, received about 1 ng/mouse of test peptide i.p. one hour after the antigen (SRBC) inoculation. Four days after this treatment, the spleen cells are removed and the test is immediately carried out.
The "plaque forming cells" test has been repeated also by treating the test mice with TP5 or with the corresponding retro-inverso analog TP5-RI1-2, three days before antigen (SRBC) injection.

[3] = in vitro; conditions: human, heparinized human plasma
Experimental: Incubations are carried out at 37° C., and aliquots (100 μl each) were collected at time intervals, blocked by treatment with 10% trifluoroacetic acid and centrifuged (10,000 rpm)
for 5'. Aliquots from the supernatant were assayed . by chromatography and the concentration of the test peptide at the different times was measured.

[4] = T.P.Tischio et al. 1979; cited from earlier work
[5] = test system: cord blood cells (CBC); assay: Rosette E formation test with sheep red blood cells; format: cell-based, human; conditions: overnight at 37° C.; for % formation of Rosette E: 5% CO2, blank 23; for % of live cells after incubation: 5% CO2, blank 100
Description: In particular, as the in vitro test, the Rosette E formation test has been performed both on peripheral blood […] (PBMC) and on cord blood cells (CBC). The CBC used give a percentage of Rosette E formation with sheep red blood cells (SRBC) of 20-40%. The test is based on the capability of human T cells of forming Rosette E with SRBC. The assay which has been carried out according to the metodology described by O.G.Bier at al. in Fundamentals of Immunology--Springer-Verlag (1981), consists in the incubation of CBC, with or without the test peptides, overnight at 37° C. in the presence of 5% CO2.

[6] = mice, about 1 ng/mouse i.p. one hour after antigen (SRBC) inoculation, spleen cells four days later, blank 4.62
[7] = mice, about 1 ng/mouse i.p. one hour after antigen (SRBC) inoculation, spleen cells four days later, blank 42.000

N=C(N)NCCC[C@H](N)C(=O)N[C@@H](CCCCN)C(=O)N[C@@H](CC(=O)O)C(=O)O [TP5^(1-3), H-Arg-Lys-Asp-OH] (H-Arg-Lys-Asp-OH)
restoration of the immune response [1]: able to restore the immune response in thymectomized mice | Log Number of plaques [2, 6]: 4.67 | Number of plaques formed [2, 7]: 48.917

CC(C)[C@H](NC(=O)[C@H](CC(=O)O)NC(=O)C(CCCCN)C(=O)N[C@@H](N)CCCNC(=N)N)C(=O)N[C@@H](Cc1ccc(O)cc1)C(=O)O (stereo partly drawn) [TP5-RI1-2, AcOH·H-gArg-(R,S)mLys-Asp-Val-Tyr--OH]
half-life [3]: 32 min

AcOH.multidot.H-gArg-(R,S)mLys-Asp--OH [TP5^(1-3) -RI1-2]
Log Number of plaques [2, 6]: 4.78 | Number of plaques formed [2, 7]: 63.125

CC(C)[C@H](NC(=O)[C@H](CC(=O)O)NC(=O)[C@H](CCCCN)NC(=O)[C@@H](N)CCCN=C(N)N)C(=O)N[C@@H](Cc1ccc(O)cc1)C(=O)O [TP5, H-Arg-Lys-Asp-Val-Tyr-OH] (H-RKDVY-OH)
half-life in serum [4]: approximately 1.5 minute | % formation of Rosette E ([5]; 10 ng/ml): 28% | % of live cells after incubation ([5]; 10 ng/ml): 65% | % formation of Rosette E ([5]; 100 ng/ml): 33% | % of live cells after incubation ([5]; 100 ng/ml): 65% | Log Number of plaques ([2]; mice treated three days before antigen (SRBC) injection, blank 4.64): 4.79 | Number of plaques formed ([2]; mice treated three days before antigen (SRBC) injection, blank 44.000): 62.000 | Log Number of plaques [2, 6]: 4.68 | Number of plaques formed [2, 7]: 48.375
